ChEMBL document CHEMBL5096199, “Structure-Based Optimization of Small Molecule Human Galactokinase Inhibitors” (J Med Chem, 2021)
≈ marks a conversion by molar mass, not a printed value.

Tests used:
Galactokinase = Galactokinase (Homo sapiens, UniProt P51570); assay: Inhibition of recombinant human GALK1 using galactose as substrate incubated for 1 hrs in the presence of ATP by Kinase-Glo reagent based luminescence assay
[1] = Permeability of the compound at pH 7.4 measured after 30 mins by PAMPA based LC/MS analysis; assay type: ADME; conditions: for Papp at 0.5 h: PAMPA, pH 7.4, read-out: permeability
[2] = Metabolic stability in mouse liver microsome assessed as half life; assay type: ADME; conditions: microsomes
[3] = Metabolic stability in human liver microsomes assessed as half life; assay type: ADME, Microsome
physchem = conditions: phosphate buffer, pH 7.4
Description: Kinetic solubility of the compound in phosphate buffer at pH 7.4 at 150 uM incubated for 6 hrs by shake-flask method

Galactokinase, sequence (P51570 whole entry): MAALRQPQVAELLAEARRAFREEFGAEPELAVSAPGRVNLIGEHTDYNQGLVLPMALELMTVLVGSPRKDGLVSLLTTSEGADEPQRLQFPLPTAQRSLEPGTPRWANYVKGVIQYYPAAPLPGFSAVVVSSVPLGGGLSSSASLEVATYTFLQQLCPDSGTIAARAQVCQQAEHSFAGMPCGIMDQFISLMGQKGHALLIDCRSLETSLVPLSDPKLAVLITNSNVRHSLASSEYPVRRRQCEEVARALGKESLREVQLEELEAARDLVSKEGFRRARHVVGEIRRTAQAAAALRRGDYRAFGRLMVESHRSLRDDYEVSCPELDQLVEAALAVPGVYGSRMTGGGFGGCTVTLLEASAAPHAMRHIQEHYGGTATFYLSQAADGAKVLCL

Compound `CC1=C(C(=O)Nc2ccccc2Cl)C(c2ccccc2Cl)N=C(Nc2nc3ccccc3o2)N1` (configuration not stated) has an IC50 (Galactokinase; read-out: pIC50 (converted)) of 4.17 µM.
With `CC1=C(C(=O)NCc2cn(C)cn2)C(c2ccccc2Cl)N=C(Nc2nc3ccccc3o2)N1` (configuration not stated) the IC50 (Galactokinase; read-out: pIC50 (converted)) was 1.05 µM.
In the case of `CC1=C(C(=O)Nc2cc(C(=O)O)ccn2)C(c2ccccc2Cl)N=C(Nc2nc3cccc(C)c3o2)N1` (configuration not stated), the IC50 (Galactokinase; read-out: pIC50 (converted)) is reported as 0.933 µM.
Compound `CC1=C(C(=O)Nc2ccc(O)cc2)C(c2ccccc2Cl)N=C(Nc2nc3ccccc3o2)N1` (configuration not stated) has an IC50 (Galactokinase; read-out: pIC50 (converted)) of 3.72 µM.
Work on `CC1=C(C(=O)Nc2cccc(C(=O)O)c2)C(c2ccccc2Cl)N=C(Nc2nc3ccccc3o2)N1` (configuration not stated) yielded an IC50 (Galactokinase; read-out: pIC50 (converted)) of 2.63 µM.
`CC1=C(C(=O)NCc2ccc(C(=O)O)cc2)C(c2ccccc2Cl)N=C(Nc2nc3ccccc3o2)N1` (configuration not stated) showed an IC50 (Galactokinase; read-out: pIC50 (converted)) of 3.72 µM.
With `CC1=C(C(=O)Nc2cccc(CO)c2)C(c2ccccc2Cl)N=C(Nc2nc3ccccc3o2)N1` (configuration not stated) the IC50 (Galactokinase; read-out: pIC50 (converted)) was 4.17 µM.
For `CC1=C(C(=O)Nc2cc(C(=O)O)ccn2)C(c2ccc(Cl)cc2Cl)N=C(Nc2nc3ccc(F)cc3o2)N1` (configuration not stated), the IC50 (Galactokinase; read-out: pIC50 (converted)) was 1.05 µM.
With `CC1=C(C(=O)Nc2ccccc2)C(c2ccccc2Cl)N=C(Nc2nc3ccccc3o2)N1` (configuration not stated) the IC50 (Galactokinase; read-out: pIC50 (converted)) was 10.5 µM.
With `CC1=C(C(=O)NCc2cnn(C)c2)C(c2ccc(C)cc2Cl)N=C(Nc2nc3cccc(N)c3o2)N1` (racemic) the IC50 (Galactokinase; read-out: pIC50 (converted)) was 0.209 µM, the permeability ([1]; pampa, pH 7.4, 0.5 h) was 315 10^-6 cm/s and the t1/2 [2] was 11 min. The t1/2 [3] was 32 min and the solubility kinetic at 6 h, 150 µM (physchem) was 8.3 µg/mL (≈ 16.4 µM).
Compound `CCn1cc(CNC(=O)C2=C(C)NC(Nc3nc4ccc(F)c(N)c4o3)=N[C@@H]2c2ccc(C)cc2Cl)cn1` has an IC50 (Galactokinase; read-out: pIC50 (converted)) of 1.48 µM, a Papp at 0.5 h [1] of 407 ×10⁻⁶ cm/s and a t1/2 [2] of 12 min. For the same compound, the t1/2 [3] was 10 min and the solubility kinetic at 6 h, 150 µM (physchem) was 2.1 µg/mL (≈ 3.91 µM).
`CC1=C(C(=O)Nc2cc(C(=O)O)ccn2)C(c2ccccc2Cl)N=C(Nc2nc3cc(N)ccc3o2)N1` (configuration not stated) showed an IC50 (Galactokinase; read-out: pIC50 (converted)) of 7.41 µM.
With `CC1=C(C(=O)NCc2cnn(C)c2)[C@H](c2ccc(C)cc2Cl)N=C(Nc2nc3cccc(N)c3o2)N1` the IC50 (Galactokinase; read-out: pIC50 (converted)) was 0.12 µM, the Papp at 0.5 h [1] was 661 ×10⁻⁶ cm/s and the t1/2 [2] was 7 min. It also gave a t1/2 [3] of 37 min and a solubility kinetic at 6 h, 150 µM (physchem) of 17 µg/mL (≈ 33.7 µM).
`CC1=C(C(=O)NCc2cccc(CO)c2)C(c2ccccc2Cl)N=C(Nc2nc3ccccc3o2)N1` (configuration not stated) gave an IC50 (Galactokinase; read-out: pIC50 (converted)) of 4.68 µM.
Compound `CC1=C(C(=O)Nc2cc(C(=O)O)ccn2)C(c2ccccc2Cl)N=C(Nc2nc3cccc(F)c3o2)N1` (configuration not stated) has an IC50 (Galactokinase; read-out: pIC50 (converted)) of 1.78 µM.
Work on `CC1=C(C(=O)Nc2cc(C(=O)O)ccn2)C(c2ccccc2Cl)N=C(Nc2nc3cccc(N)c3o2)N1` (configuration not stated) yielded an IC50 (Galactokinase; read-out: pIC50 (converted)) of 0.234 µM.
Work on `COc1ccc2nc(NC3=NC(c4ccccc4Cl)C(C(=O)Nc4cc(C(=O)O)ccn4)=C(C)N3)oc2c1` (configuration not stated) yielded an IC50 (Galactokinase; read-out: pIC50 (converted)) of 19.5 µM.
For `CC1=C(C(=O)Nc2nncs2)C(c2ccccc2Cl)N=C(Nc2nc3ccccc3o2)N1` (configuration not stated), the IC50 (Galactokinase; read-out: IC50) was 3.43 µM and the IC50 (Galactokinase; read-out: pIC50 (converted)) was 3.72 µM.
`CC1=C(C(=O)Nc2cccnc2)C(c2ccccc2Cl)N=C(Nc2nc3ccccc3o2)N1` (configuration not stated) gave an IC50 (Galactokinase; read-out: pIC50 (converted)) of 6.61 µM.
